Patent US20110098283A1, “3-CINNOLINECARBOXAMIDE DERIVATIVES AND THEIR USE FOR TREATING CANCER” (ASTRAZENECA AB, priority 2007, published 2011)

Key:
[1] = biological target: T1, CSF-1R (His-tagged kinase domain, amino acids 568-912) (Homo sapiens, UniProt P07333); test: Assay 1: CSF-1R in vitro AlphaScreen Assay; type: biochemical; details: phosphorylation of pEY substrate; 0.57 nM CSF-1R, 90 μM ATP
T1 construct: The His-tagged kinase domain of CSF-1R (i.e., amino acids 568-912, GeneBank ID NM_005211); His; made in house; host or cells: baculovirus infected SF+Express insect cells
T1 sequence (P07333 568-912): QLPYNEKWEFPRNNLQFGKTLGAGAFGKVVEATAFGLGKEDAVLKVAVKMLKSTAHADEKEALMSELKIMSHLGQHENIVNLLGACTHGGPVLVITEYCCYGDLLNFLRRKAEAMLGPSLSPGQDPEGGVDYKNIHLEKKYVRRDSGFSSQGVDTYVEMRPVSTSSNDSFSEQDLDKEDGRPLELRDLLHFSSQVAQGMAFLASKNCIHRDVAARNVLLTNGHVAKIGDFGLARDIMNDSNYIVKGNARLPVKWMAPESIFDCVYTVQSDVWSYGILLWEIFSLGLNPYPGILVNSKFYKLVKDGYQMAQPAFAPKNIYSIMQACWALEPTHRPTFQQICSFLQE
Description: Assay 1: CSF-1R in vitro AlphaScreen Assay
Activity of purified CSF-1R was determined in vitro using an Amplified Luminescent Proximity Homogeneous Assay (ALPHA) (Perkin Elmer), which measures phosphorylation of the CSF-1R substrate, biotinylated poly-glutamine-tyrosine peptide (pEY-HTRF CisBio 61GT0BLD), as described below.
The phosphorylation of the CSF-1R substrate in the presence and absence of the compound of interest was determined. […] Plates were incubated at 25° C. for 18 hours in the dark. Phosphorylated substrate was detected by an EnVision plate reader (Perkin Elmer) 680 nm excitation, 520-620 nm emission. Data was graphed and IC50s calculated using Excel Fit (Microsoft).

[2] = biological target: T1, CSF-1R (His-tagged kinase domain, amino acids 568-912); test: Assay 2: CSF1R in-vitro AlphaScreen Assay; type: biochemical; details: phosphorylation of pEY substrate; 0.46 nM CSF-1R, 12 mM ATP in mix
Description: Assay 2: CSF1R in-vitro AlphaScreen Assay
Activity of purified CSF-1R was determined in-vitro using an Amplified Luminescent Proximity Homogeneous Assay (ALPHA) (Perkin Elmer, Mass.), which measures phosphorylation of CSF-1R substrate, biotinylated poly-glutamine-tyrosine peptide (pEY-HTRF CisBio 61GT0BLD), as described below. The His-tagged kinase domain of CSF-1R (i e, amino acids 568-912, GeneBank ID NM_005211) was purified from baculovirus infected SF+Express insect cells (1.4×10^6 cells/ml), French pressed and chromatographed through subsequent QIAgen Ni-NTA, Superflow Mono Q HR 10/10, and Superdex 200 SEC columns.
The phosphorylation of the CSF-1R substrate in the presence and absence of the compound of interest was determined. Briefly, 5 ul of Enzyme/Substrate/adenosine triphosphate (ATP) mix consisting of 0.46 nM of purified CSF-1R, 12 nM pEY substrate, and 12 mM ATP in 1.2× buffer was preincubated with 2 ul of compound for 20 minutes at 25° C. Reactions were initiated with 5 ul of Metal mix consisting of 24 mM MgCl2 in 1.2× buffer and incubated at 25° C. for 90 minutes and reactions were stopped by addition of 5 ul of Detection mix consisting of 20 mM HEPES, 102 mM ethylenediamine tetraacetic acid, 1.65 mg/ml BSA, 136 mM NaCl, 40 ug/ml Streptavidin donor beads (Perkin Elmer, Mass., Catalog #6760002), and 40 ug/ml phosphotyrosine-specific antibody coated acceptor beads (Perkin Elmer, Mass., Catalog #6760620). Plates were incubated at 25° C. for 18 hours in the dark. Phosphorylated substrate was detected by an EnVision plate reader (Perkin Elmer) 680 nm excitation, 520-620 nm emission. Data was graphed and IC50s calculated using Excel Fit (Microsoft).

| Compound | IC50 [1] [nM] | IC50 [2] [nM] |
| --- | --- | --- |
| COc1cc2nnc(C(N)=O)c(Nc3ccc(F)cc3F)c2cc1OC [Example 1, 4-[(2,4-Difluorophenyl)amino]-6,7-dimethoxycinnoline-3-carboxamide] | < 3 | – |
| COc1cc2nnc(C(N)=O)c(Nc3ccc(C)cc3F)c2cc1OC [Example 2, 4-[(2-Fluoro-4-methylphenyl)amino]-6,7-dimethoxycinnoline-3-carboxamide] | 8 | – |
| COc1cc2nnc(C(N)=O)c(Nc3cc(C)ccc3F)c2cc1OC [Example 4, 4-[(2-Fluoro-5-methylphenyl)amino]-6,7-dimethoxycinnoline-3-carboxamide] | 5 | – |
| COc1cc2nnc(C(N)=O)c(Nc3cccc(Cl)c3Cl)c2cc1OC [Example 5, 4-[(2,3-Dichlorophenyl)amino]-6,7-dimethoxycinnoline-3-carboxamide] | < 3 | – |
| CCOc1cc2nnc(C(N)=O)c(Nc3cc(C)ccc3F)c2cc1N1CCN(C)CC1 [Example 6, 7-Ethoxy-4-[(2-fluoro-5-methylphenyl)amino]-6-(4-methylpiperazin-1-yl)cinnoline-3-carboxamide] | < 3 | – |
| CCOc1cc2nnc(C(N)=O)c(Nc3cccc(Cl)c3Cl)c2cc1N1CCN(C)CC1 [Example 8, 4-[(2,3-Dichlorophenyl)amino]-7-ethoxy-6-(4-methylpiperazin-1-yl)cinnoline-3-carboxamide] | 3 | – |
| CCOc1cc2nnc(C(N)=O)c(Nc3cccc(Cl)c3F)c2cc1N1CCN(C)CC1 [Example 9, 4-[(3-Chloro-2-fluoro-phenyl)amino]-7-ethoxy-6-(4-methylpiperazin-1-yl)cinnoline-3-carboxamide] | < 15 | – |
| CCOc1cc2nnc(C(N)=O)c(Nc3ccc(C)cc3F)c2cc1N1CCN(C)CC1 [Example 10, 7-Ethoxy-4-[(2-fluoro-4-methyl-phenyl)amino]-6-(4-methylpiperazin-1-yl)cinnoline-3-carboxamide] | < 3 | – |
| CCOc1cc2nnc(C(N)=O)c(Nc3ccc(F)cc3F)c2cc1N1CCN(C(C)C)CC1 [Example 11, 4-[(2,4-Difluorophenyl)amino]-7-ethoxy-6-(4-propan-2-ylpiperazin-1-yl)cinnoline-3-carboxamide] | 8 | – |
| CCOc1cc2nnc(C(N)=O)c(Nc3ccc(F)cc3F)c2cc1N1CCN(CC)CC1 [Example 12, 4-[(2,4-Difluorophenyl)amino]-7-ethoxy-6-(4-ethylpiperazin-1-yl)cinnoline-3-carboxamide] | 5 | – |
| COc1cc2nnc(C(N)=O)c(Nc3cccc(Cl)c3F)c2cc1N1CCN(C)CC1 [Example 14, 4-[(3-Chloro-2-fluorophenyl)amino]-7-methoxy-6-(4-methylpiperazin-1-yl)cinnoline-3-carboxamide] | < 3 | – |
| COc1cc2nnc(C(N)=O)c(Nc3ccc(C)cc3F)c2cc1N1CCN(C(C)(C)C)CC1 [Example 16, 6-(4-tert-Butylpiperazin-1-yl)-4-[(2-fluoro-4-methylphenyl)amino]-7-methoxycinnoline-3-carboxamide] | 9 | – |
| COCCOc1cc2nnc(C(N)=O)c(Nc3ccc(F)cc3F)c2cc1N1CCN(C)CC1 [Example 17, 4-[(2,4-Difluorophenyl)amino]-7-(2-methoxyethoxy)-6-(4-methylpiperazin-1-yl)cinnoline-3-carboxamide] | < 3 | – |
| COCCOc1cc2nnc(C(N)=O)c(Nc3ccc(C)cc3F)c2cc1N1CCN(C)CC1 [Example 18, 4-[(2-Fluoro-4-methylphenyl)amino]-7-(2-methoxyethoxy)-6-(4-methylpiperazin-1-yl)cinnoline-3-carboxamide] | < 3 | – |
| COCCOc1cc2nnc(C(N)=O)c(Nc3cc(C)ccc3F)c2cc1N1CCN(C)CC1 [Example 19, 4-[(2-Fluoro-5-methylphenyl)amino]-7-(2-methoxyethoxy)-6-(4-methylpiperazin-1-yl)cinnoline-3-carboxamide] | < 3 | – |
| COc1cc2nnc(C(N)=O)c(Nc3ccc(F)cc3F)c2cc1N1CCN(C)CC1 [Example 20, 4-[(2,4-Difluorophenyl)amino]-7-methoxy-6-(4-methylpiperazin-1-yl)cinnoline-3-carboxamide] | < 3 | – |
| COCCOc1cc2nnc(C(N)=O)c(Nc3cccc(Cl)c3F)c2cc1N1CCN(C)CC1 [Example 21, 4-[(3-Chloro-2-fluorophenyl)amino]-7-(2-methoxyethoxy)-6-(4-methylpiperazin-1-yl)cinnoline-3-carboxamide] | < 3 | – |
| COc1cc2nnc(C(N)=O)c(Nc3cc(C)ccc3F)c2cc1N1CCN(C)CC1 [Example 22, 4-[(2-Fluoro-5-methylphenyl)amino]-7-methoxy-6-(4-methylpiperazin-1-yl)cinnoline-3-carboxamide] | < 3 | – |
| COc1cc2nnc(C(N)=O)c(Nc3cc(C)ccc3F)c2cc1N1CCN(C(C)C)CC1 [Example 23, 4-[(2-Fluoro-5-methylphenyl)amino]-6-(4-isopropylpiperazin-1-yl)-7-methoxycinnoline-3-carboxamide] | < 5 | – |
| COCCOc1cc2nnc(C(N)=O)c(Nc3ccc(F)cc3F)c2cc1N1CCN(C(C)C)CC1 [Example 24, 4-[(2,4-Difluorophenyl)amino]-6-(4-isopropylpiperazin-1-yl)-7-(2-methoxyethoxy)cinnoline-3-carboxamide] | < 3 | – |
| CCOc1cc2nnc(C(N)=O)c(Nc3ccc(C)cc3F)c2cc1N1CCN(C(C)C)CC1 [Example 25, 7-Ethoxy-4-[(2-fluoro-4-methylphenyl)amino]-6-(4-isopropylpiperazin-1-yl)cinnoline-3-carboxamide] | < 3 | – |
| COc1cc2nnc(C(N)=O)c(Nc3ccc(C)cc3F)c2cc1-c1ccncc1 [Example 26, 4-[(2-Fluoro-4-methylphenyl)amino]-7-methoxy-6-pyridin-4-ylcinnoline-3-carboxamide] | 51 | – |
| CCOc1cc2nnc(C(N)=O)c(Nc3ccc(C)cc3F)c2cc1N1CCCN(C)CC1 [Example 27, 7-Ethoxy-4-[(2-fluoro-4-methylphenyl)amino]-6-(4-methyl-1,4-diazepan-1-yl)cinnoline-3-carboxamide] | < 3 | – |
| CCOc1cc2nnc(C(N)=O)c(Nc3ccc(C)cc3F)c2cc1N1C[C@@H](C)N[C@@H](C)C1 [Example 28, 6-[(3R,5S)-3,5-Dimethylpiperazin-1-yl]-7-ethoxy-4-[(2-fluoro-4-methylphenyl)amino]cinnoline-3-carboxamide] | < 3 | – |
| COc1cc2nnc(C(N)=O)c(Nc3ccc(C)cc3F)c2cc1C1=CCN(C(C)C)CC1 [Example 29, 4-[(2-Fluoro-4-methylphenyl)amino]-6-(1-isopropyl-1,2,3,6-tetrahydropyridin-4-yl)-7-methoxycinnoline-3-carboxamide] | – | 7 |
| COc1cc2nnc(C(N)=O)c(Nc3ccc(C)cc3F)c2cc1N1CCn2cnnc2C1 [Example 31, 6-(5,6-Dihydro[1,2,4]triazolo[4,3-a]pyrazin-7(8H)-yl)-4-[(2-fluoro-4-methylphenyl)amino]-7-methoxycinnoline-3-carboxamide] | – | 13 |
| COc1cc2nnc(C(N)=O)c(Nc3ccc(C)cc3F)c2cc1N1CCN2C(=NNC2O)C1 (stereo not shown) [Example 32, 4-[(2-Fluoro-4-methylphenyl)amino]-6-(3-hydroxy-2,5,6,8-tetrahydro[1,2,4]triazolo[4,3-a]pyrazin-7(3H)-yl)-7-methoxycinnoline-3-carboxamide] | – | 8 |
| COc1cc2nnc(C(N)=O)c(Nc3ccc(C)cc3F)c2cc1N1CCN2CCCC2C1 (stereo not shown) [Example 33, 4-[(2-Fluoro-4-methylphenyl)amino]-6-(hexahydropyrrolo[1,2-a]pyrazin-2(1H)-yl)-7-methoxycinnoline-3-carboxamide] | – | 12 |
